Reference: patent publication US9326513B2, “Fungicidal compositions” (Syngenta Participations AG, priority 2011, dated 2016)
“And” between values parts separate entries of the source, which are not always exact repeats. Identical values can stand only once. Like-named read-outs stand apart in the source and are kept apart here.

Key:
[1] = test system: Blumeria graminis f. sp. tritici (Erysiphe graminis f. sp. tritici); assay: Blumeria graminis f. sp. tritici / wheat / leaf disc preventative (powdery mildew on wheat); type: in vivo; conditions: foliar, compared to untreated control leaf disks, read-out: disease control
How it was run: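 Wheat leaf segments (cv. Kanzler) on agar were sprayed with formulated compound in water, inoculated with powdery mildew 1 day later, and kept at 20° C, 60% rh (24 h dark, then 12 h light/12 h dark). Percent disease control versus untreated scored 6-8 days after application; tested at 200 ppm.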

[2] = test system: Puccinia recondita f. sp. tritici; assay: Puccinia recondita f. sp. tritici / wheat / leaf disc preventative (brown rust); type: in vivo; conditions: foliar, compared to untreated control leaf disks, read-out: disease control
Excerpt: Puccinia recondita f. sp. tritici/Wheat/Leaf Disc Preventative (Brown Rust) Wheat leaf segments cv. Kanzler were placed on agar in multiwell plates (24-well format) and sprayed with the formulated test compound diluted in water. The leaf disks were inoculated with a spore suspension of the fungus 1 day after application.

[3] = test system: Puccinia recondita f. sp. tritici; assay: Puccinia recondita f. sp. tritici / wheat / leaf disc curative (brown rust); type: in vivo; conditions: foliar, compared to untreated control leaf disks, read-out: disease control
Procedure: Puccinia recondita f. sp. tritici/Wheat/Leaf Disc Curative (Brown Rust) Wheat leaf segments cv. Kanzler are placed on agar in multiwell plates (24-well format). The leaf segments are inoculated with a spore suspension of the fungus. Plates were stored in darkness at 19° C. and 75% rh. The formulated test compound diluted in water was applied 1 day after inoculation.

[4] = test system: Fusarium graminearum and Fusarium culmorum; type: in vivo; conditions: solo, wheat, 1 day preventive, 9 days after application
Septoria tritici [5] = assay: Septoria tritici on wheat, preventive treatment; type: in vivo; conditions: solo, wheat Riband, 1 day preventive, 18 days after application
Pyrenophora teres = Pyrenophora teres / barley / leaf disc preventative (net blotch); type: in vivo; conditions: foliar, compared to untreated control leaf disks, read-out: disease control
Excerpt: Pyrenophora teres/Barley/Leaf Disc Preventative (Net Blotch) Barley leaf segments cv. Hasso were placed on agar in a multiwell plate (24-well format) and sprayed with the formulated test compound diluted in water. The leaf segments were inoculated with a spore suspension of the fungus 2 days after application.

Septoria tritici [6] = assay: Septoria tritici (leaf blotch), YBG microtiter plate, photometric growth inhibition after 6 days; type: cell-based; conditions: Zymoseptoria tritici, 144 h, solo
Excerpt: (§1) In the following Tables ‘Activity (%)’ means the assessed experimental activity (% disease control in this test when compared to untreated control leaf disks under the same conditions, which show extensive disease development) and “P” is the expected value calculated (expected) activity according to the COLBY formula (see above). The column headed ‘S?’ indicates whether or not synergy was observed, with ‘y’ meaning that synergy was observed.
Septoria tritici (Leaf Blotch):
After placing solutions of the test compounds (containing 0.2% DMSO) into a microtiter plate (96-well format), an equal amount of the nutrient broth (YBG) was added to each of the well. Finally the fungal spore solution was added. The test plates were incubated at 20° C. The inhibition of growth was determined photometrically after 6 days and the activity calculated in relation to untreated control.

[7] = test system: Phakopsora pachyrhizi (triazole tolerant soybeanrust strain); assay: Phakopsora pachyrhizi on soybean, preventive treatment; type: in vivo; conditions: solo, soybean leaf discs, 1 day preventive, 11 days after application
[8] = test system: Monographella nivalis (syn. Microdochium nivale, Fusarium nivale); assay: Monographella nivalis (snow mould, foot rot of cereals), PDB microtiter plate, visual after 72 hrs; type: cell-based; conditions: Monographella nivalis
Botrytis cinerea = Botrytis cinerea (gray mould), PDB microtiter plate, visual after 72 hrs; type: cell-based; conditions: alone
Septoria tritici [9] = assay: Septoria tritici (leaf blotch), PDB microtiter plate, visual after 72 hrs; type: cell-based; conditions: Zymoseptoria tritici, single compound, 0.0125 ppm
Sphaerotheca fuliginea = Sphaerotheca fuliginea (powdery mildew) on cucumber, preventive treatment; type: in vivo; conditions: solo, 2 days preventive, 10 days after application
Excerpt: In the following Tables 'Activity (%)' means the assessed experimental activity (% disease control in this test when compared to untreated control leaf disks under the same conditions, which show extensive disease development) and “P” is the expected value calculated (expected) activity according to the COLBY formula (see above). The column headed 'S?' indicates whether or not synergy was observed, with 'y' meaning that synergy was observed. Sphaerotheca fuliqinea (Powdery Mildew) on Cucumber, Preventive Treatment […] Cucumber plants with unfolded cotyledons were sprayed with a roomsprayer and 40 ml/4 plants spray volume with the test compounds, either solo or in […] shown in the table below. 2 days after application the plants were infested with spores of Sphaerotheca fuliginea.

Gaeumannomvces graminis = Gaeumannomvces graminis (take-all of cereals), PDB microtiter plate, visual after 48 hrs; type: cell-based; conditions: solo
Excerpt: In the following Tables ‘Activity (%)’ means the assessed experimental activity (% disease control in this test when compared to untreated control leaf disks under the same conditions, which show extensive disease development) and “P” is the expected value calculated (expected) activity according to the COLBY formula (see above). The column headed ‘S?’ indicates whether or not synergy was observed, with ‘y’ meaning that synergy was observed. Gaeumannomvces graminis (Take-all of Cereals) Mycelial fragments of the fungus from cryogenic storage were directly mixed into nutrient broth (PDB potato dextrose broth). After placing a (DMSO) solution of the test compounds into a microtiter plate (96-well format) the nutrient broth containing the fungal spores was added.

Sclerotinia sclerotiorum = Sclerotinia sclerotiorum on oilseed rape, preventive treatment; type: in vivo; conditions: solo, 1 day preventive, 11 days after application
Excerpt: as §1
Sclerotinia sclerotiorum on Oilseed Rape, Preventive Treatment
The compound activity was tested under 1 day preventive conditions. Oilseed rape plants with 3 unfolded leafs were sprayed with a track sprayer and 200 I/ha spray volume with the test compounds, either solo or in tankmix as shown in the table below.
1 day after application the plants were infested with a solution of Sclerotinia sclerotiorum mycelium. The plants were placed under plastic hoods and high humidity conditions in a climate chamber at 14 h day/10 h night cycle and 15° C. Disease infestation was evaluated visually 11 days after application and average activity calculated in relation to disease severity on untreated check.

Pythium ultimum = Pythium ultimum (damping off), PDB microtiter plate, visual after 48 hrs; type: cell-based; conditions: solo, rate 0.03125 ppm

CCN(C)/C=N/c1cc(Br)c(OCc2ccccc2C)nc1C [Q.151]
pest or weed control at 200 ppm [1]: ≥ 50% | pest or weed control at 200 ppm [2]: ≥ 50% | pest or weed control at 200 ppm [3]: ≥ 50% | Activity ([4]; 200 g a.i./ha): 3% | Activity (Septoria tritici [5]; 1 g a.i./ha): 0% | Activity (Septoria tritici [5]; 3 g a.i./ha): 0% and 4% | Activity (Septoria tritici [5]; 9 g a.i./ha): 0% | Activity (Septoria tritici [5]; 81 g a.i./ha): 43%

CCN(C)/C=N/c1cc(Br)c(OCc2cc(C)ns2)nc1C [Q.235]
pest or weed control at 200 ppm [1]: ≥ 50% | pest or weed control at 200 ppm [2]: ≥ 50% | pest or weed control at 200 ppm [3]: ≥ 50% | pest or weed control at 200 ppm (Pyrenophora teres): ≥ 50% | melting point: 55 to 57 °C

CC(C1CC1)C(O)(Cn1cncn1)c1ccc(Cl)cc1 (stereo not shown) [Cyproconazole]
inhibition of growth at 0.25 ppm (Septoria tritici [6]; rate 0.25 ppm): 0% | inhibition of growth at 0.5 ppm (Septoria tritici [6]; rate 0.5 ppm): 64% | inhibition of growth at 1 ppm (Septoria tritici [6]; rate 1 ppm): 84% | inhibition of growth at 1.25 ppm (Septoria tritici [6]; rate 1.25 ppm): 39% | inhibition of growth at 2.5 ppm (Septoria tritici [6]; rate 2.5 ppm): 76% | Activity ([7]; rate 0.5 g ai/ha): 38% | Activity ([7]; rate 2 g ai/ha): 53%

OC(Cc1ccccc1Cl)(Cn1nc[nH]c1=S)C1(Cl)CC1 (stereo not shown) [Prothioconazole]
inhibition at 0.0125 ppm ([8]; applied alone, 0.0125 ppm): 0% | inhibition at 0.0015625 ppm ([8]; applied alone, rate 0.0015625 ppm): 0% | inhibition at 0.003125 ppm ([8]; applied alone, rate 0.003125 ppm): 0% | inhibition at 0.00625 ppm ([8]; applied alone, rate 0.00625 ppm): 0% | inhibition at 0.0125 ppm ([8]; applied alone, rate 0.0125 ppm): 0% | inhibition at 0.0125 ppm ([8]; single compound, rate 0.0125 ppm): 0% | inhibition at 0.00625 ppm (Botrytis cinerea; Botrytis cinerea, rate 0.00625 ppm): 0% | inhibition at 0.0125 ppm (Botrytis cinerea; Botrytis cinerea, rate 0.0125 ppm): 0% | inhibition at 0.025 ppm (Botrytis cinerea; Botrytis cinerea, rate 0.025 ppm): 0% | inhibition at 0.05 ppm (Botrytis cinerea; Botrytis cinerea, rate 0.05 ppm): 50% | Activity (%) (Botrytis cinerea; rate 0.05 ppm): 70% | inhibition at 0.0125 ppm (Septoria tritici [9]): 70% | inhibition of growth at 0.0195312 ppm (Septoria tritici [6]; rate 0.01953125 ppm): 69% | inhibition of growth at 0.03125 ppm (Septoria tritici [6]; rate 0.03125 ppm, read-out: Activity): 9% | inhibition of growth at 0.0390625 ppm (Septoria tritici [6]; rate 0.0390625 ppm): 63% | inhibition of growth at 0.0625 ppm (Septoria tritici [6]; rate 0.0625 ppm): 63% | Activity ([4]; 50 g a.i./ha): 55%

CCN(C)/C=N/c1cc(Br)c(OCc2cc(C)ccc2C)nc1C [Q.154]
pest or weed control at 200 ppm [1]: ≥ 50% | pest or weed control at 200 ppm [2]: ≥ 50% | pest or weed control at 200 ppm [3]: ≥ 50% | pest or weed control at 200 ppm (Pyrenophora teres): ≥ 50% | melting point: 53 to 57 °C

CCN(C)/C=N/c1cc(Br)c(OC2CC=CC2)nc1C [Q.063]
pest or weed control at 200 ppm [1]: ≥ 50% | pest or weed control at 200 ppm [2]: ≥ 50% | pest or weed control at 200 ppm [3]: ≥ 50% | pest or weed control at 200 ppm (Pyrenophora teres): ≥ 50% | Activity ([7]; rate 0.5 g ai/ha): 0% | Activity ([7]; rate 2 g ai/ha): 0%

CSC(=O)c1cccc2nnsc12 [Acibenzolar-s-methyl]
Activity (Sphaerotheca fuliginea; rate 0.6 ppm): 0% | Activity (Sphaerotheca fuliginea; rate 2 ppm): 0% | Activity (Sphaerotheca fuliginea; rate 6 ppm): 0% | Activity (Sphaerotheca fuliginea; rate 20 ppm): 4%

Cn1cc(C(=O)Nc2cccc3c2C2CCC3C2=C(Cl)Cl)c(C(F)F)n1 (stereo not shown) [(V), N-[9-(dichloromethylene)-1,2,3,4-tetrahydro-1,4-methanonaphthalen-5-yl]-3-(difluoromethyl)-1-methyl-1H-pyrazole-4-carboxamide, reference compound]
inhibition at 0.03125 ppm ([8]; applied alone, 0.03125 ppm): 0% | inhibition at 0.0625 ppm ([8]; applied alone, 0.0625 ppm): 50% | inhibition at 0.125 ppm ([8]; applied alone, 0.125 ppm): 70% | inhibition at 0.03125 ppm ([8]; applied alone, rate 0.03125 ppm): 0% | inhibition at 0.0625 ppm ([8]; applied alone, rate 0.0625 ppm): 50% | inhibition at 0.015625 ppm (Botrytis cinerea; Botrytis cinerea, rate 0.015625 ppm): 20% | inhibition at 0.03125 ppm (Botrytis cinerea; Botrytis cinerea, rate 0.03125 ppm, read-out: Activity (%)): 50% | inhibition at 0.0625 ppm (Botrytis cinerea; Botrytis cinerea, rate 0.0625 ppm, read-out: Activity (%)): 70% | inhibition at 0.125 ppm (Botrytis cinerea; Botrytis cinerea, rate 0.125 ppm): 70% | inhibition at 0.015625 ppm (Gaeumannomvces graminis; rate 0.015625 ppm): 0% | inhibition at 0.03125 ppm (Gaeumannomvces graminis; rate 0.03125 ppm): 20% | inhibition at 0.0625 ppm (Gaeumannomvces graminis; rate 0.0625 ppm): 70%

CCN(C)/C=N/c1cc(Br)c(OCc2ccc(F)cc2C)nc1C [Q.320]
pest or weed control at 200 ppm [1]: ≥ 50% | pest or weed control at 200 ppm [2]: ≥ 50% | pest or weed control at 200 ppm [3]: ≥ 50% | pest or weed control at 200 ppm (Pyrenophora teres): ≥ 50% | melting point: 27 to 30 °C

CCN(C)/C=N/c1cc(Br)c(OCc2c(F)cccc2F)nc1C [Q.326]
pest or weed control at 200 ppm [1]: ≥ 50% | pest or weed control at 200 ppm [2]: ≥ 50% | pest or weed control at 200 ppm [3]: ≥ 50% | pest or weed control at 200 ppm (Pyrenophora teres): ≥ 50% | melting point: 61 to 62 °C

O=C(Nc1ccccc1-c1ccc(Cl)cc1)c1cccnc1Cl [Boscalid]
Activity (Sclerotinia sclerotiorum; rate 50 g a.i./ha): 8% | Activity (Sclerotinia sclerotiorum; rate 100 g a.i./ha): 25%

CCN(C)/C=N/c1cc(Br)c(OCc2cccc(F)c2C)nc1C [Q.322]
pest or weed control at 200 ppm [1]: ≥ 50% | pest or weed control at 200 ppm [2]: ≥ 50% | pest or weed control at 200 ppm [3]: ≥ 50% | pest or weed control at 200 ppm (Pyrenophora teres): ≥ 50% | melting point: 67 to 68 °C

CCN(C)/C=N/c1cc(Br)c(OCc2ccccc2F)nc1C [Q.298]
pest or weed control at 200 ppm [1]: ≥ 50% | pest or weed control at 200 ppm [2]: ≥ 50% | pest or weed control at 200 ppm [3]: ≥ 50% | pest or weed control at 200 ppm (Pyrenophora teres): ≥ 50% | melting point: 57 to 61 °C

CCN(C)/C=N/c1cc(Br)c(OCc2cc(C)cc(C)c2)nc1C [Q.207]
pest or weed control at 200 ppm [1]: ≥ 50% | pest or weed control at 200 ppm [2]: ≥ 50% | pest or weed control at 200 ppm [3]: ≥ 50% | pest or weed control at 200 ppm (Pyrenophora teres): ≥ 50% | melting point: 57 to 58 °C

CCN(C)/C=N/c1cc(Br)c(OCCc2ccc(F)cc2)nc1C [Q.129]
pest or weed control at 200 ppm [1]: ≥ 50% | pest or weed control at 200 ppm [2]: ≥ 50% | pest or weed control at 200 ppm [3]: ≥ 50% | pest or weed control at 200 ppm (Pyrenophora teres): ≥ 50% | melting point: 46 to 48 °C

COCC(=O)N(c1c(C)cccc1C)[C@H](C)C(=O)OC [Mefenoxam]
Activity (%) (Pythium ultimum): 50%
